Reference: US11207277B2, “Methods of treating diseases associated with high-fat diet and vitamin a deficiency using retinoic acid receptor agonists” (Cornell University, priority 2013, dated 2021)
“Also recorded” adds a separate entry of the source.

Experiments:
MCP-1 = assay: Semi-quantitative PCR liver, MCP-1; type: in vivo; conditions: HF diet mice + AC261066 or CD1530
Text: (§1) WT male C57/BL6 male mice were maintained on either a standard laboratory chow-fed diet (CFD) with 13% kcal fat, (diet #5053, Lab Diet, Inc, St. Louis, Mo.) or a high fat, western style diet (HFD) with 60% kcals from fat, (diet #58126, Lab Diet, Inc., St. Louis, Mo.) for 4 months. One month after the start of the high fat diet treatment, the high fat diet group was further split into 2 groups for 3 months: i) high fat diet and the drinking water containing 1% DMSO; ii) high fat diet and the drinking water containing 1.5 mg/100 ml AC261066, a specific RARβ agonist. Then mice were sacrificed by cervical dislocation. Blood and various tissue samples were harvested.
(§2) Total RNA was extracted from mouse tissues using TRIzol reagent (Life technologies) and (1 μg) was used to synthesize cDNA. cDNA synthesis was performed at 42° C. for 1 h in a final volume of 20 μl using qScript (Quanta, MD). Semi-quantitative PCR were performed Taq DNA polymerase (Invitrogen, CA). Three step PCR was run as follows: 94° C. for 30 s, 58-64° C. for 45 s for primer annealing and 72° C. for 1 min for primer extension. The number of cycles for each primer pair for amplification in the linear range was determined experimentally. PCR products were resolved 2% agarose gels and visualized by staining with ehtidium bromide. Primers for gene expression used were as follows: […]

[1] = system: hepatocyte lipid accumulation; assay: Hematoxylin and eosin staining of liver sections (hepatic steatosis); type: in vivo; conditions: HF diet mice 4 months + AC261066 or CD1530; vs HF-vehicle
Text: as §1
At sacrifice, fresh mouse liver samples were fixed in 4% formaldehyde solution for 24 hr and embedded in paraffin blocks. Liver paraffin sections were cut 5 microns thick and mounted on glass slides and stained with hematoxylin and eosin (H and E) using standard protocols.

α-SMA = α-SMA immunofluorescence of liver sections (hepatic stellate cell activation); type: in vivo; conditions: HF diet mice + AC261066 or CD1530; vs HF-vehicle
Text: as §1
Staining. Fresh mouse liver samples were embedded in optimal cutting temperature (OCT) medium and immediately frozen to −70 centigrade. Cryosections were then fixed in 4% formaldehyde for 1 hr at room temp. Slides were then rinsed three times in deionized water (dH2O) for 30 s, followed by treatment with 0.5% Triton X-100 in PBS for 5 min. Sections were then washed three times with PBS for 5 min. Samples were with incubated 2% bovine serum albumin (BSA) for 30 min at room temperature to block for unspecific antibody binding. Following blocking, sections were washed three times in PBS and incubated with mouse monoclonal antibody against α-SMA (1:500) (Dako, Inc) for 24 h at 4° C. After 24 h sections were washed three times in PB and incubated with Alexa-Flour-488 anti-mouse secondary anti-body (1:500) (Invitrogen, Inc) for 30 min at room temperature. Sections were then washed three times in PBS and incubated with working strength oil-red O solution for 30 minutes at room temperature. Sections were then rinsed for 30 minutes under running tap water and cover-slipped with Vectashield hard mount plus DAPI (Vector Labs, Inc).

hepatic lipids = assay: Oil red O staining of liver sections; type: in vivo; conditions: HF diet mice + AC261066 or CD1530; vs HF-vehicle
Text: as §1
Staining. Fresh mouse liver samples were embedded in optimal cutting temperature (OCT) medium and immediately frozen to −70 centigrade. Cryosections were then fixed in 4% formaldehyde for 1 hr at room temp. Slides were then rinsed three times in deionized water (dH2O) for 30 s, followed by treatment with 0.5% Triton X-100 in PBS for 5 min. Sections were then washed three times with PBS for 5 min. Samples were with incubated 2% bovine serum albumin (BSA) for 30 min at room temperature to block for unspecific antibody binding. Following blocking, sections were washed three times in PBS and incubated with mouse monoclonal antibody against α-SMA (1:500) (Dako, Inc) for 24 h at 4° C. […]

SREBP1-c = assay: Semi-quantitative PCR liver, SREBP1-c; type: in vivo; conditions: HF diet mice + AC261066 or CD1530
Text: as §1, §2

TNF-α = assay: Semi-quantitative PCR liver, TNF-α; type: in vivo; conditions: HF diet mice + AC261066 or CD1530
Text: as §1, §2

renal lipid accumulation = assay: Hematoxylin and eosin staining of kidney sections; type: in vivo; conditions: HF diet mice + AC261066 or CD1530; vs HF-vehicle
Text: as §1
At sacrifice, fresh mouse liver samples were fixed in 4% formaldehyde solution for 24 hr and embedded in paraffin blocks. Kidney paraffin sections were cut 5 microns thick and mounted on glass slides and stained with hematoxylin and eosin (H and E) using standard protocols.

[2] = system: retinyl palmitate and retinol; assay: HPLC analysis of liver retinoids; type: in vivo, mice
Text: as §1
The frozen liver tissue samples (˜100 mg) were homogenized in 500 μl cold phosphate-buffered saline (PBS). In addition, 100 μl serum was diluted in cold PBS to total volume of 500 μl. Retinyl acetate was added to each sample before the retinoid extraction for the calculation of extraction efficiency. The retinoids were extracted into 350 μl of organic solution (acetonitrile/butanol, 50:50, v/v) in the dark. The high performance liquid chromatography (HPLC) was performed using a Waters Millennium system (Waters). Each sample (100 μl of the 350 μl) was loaded onto an analytical 5-μm reverse phase C18 column (Vydac, Hesperia, Calif.) and eluted at a flow rate of 1.5 ml/min. Two mobile phase gradient systems were used. Retinoids were identified by HPLC based on two criteria: an exact match of the retention times of unknown peaks with those of authentic retinoid standards and identical UV light spectra (220-400 nm) of unknowns against spectra from authentic retinoid standards during HPLC by the use of a photodiode array detector. The amounts of retinoids were calculated from the areas under the peaks detected at the wave-length of 325 nm. The levels of retinol and retinyl esters were normalized to the tissue weight.

RARβ = assay: RT-PCR of RARβ in RA-treated ES cells; type: cell-based, mouse; conditions: WT ES cells, presence of RA vs untreated
Protocol: (§3) Mouse J1 wild-type FS cells were cultured as described previously (27). C57BL/6 RARβ heterozygous mice were provided by Dr. Pierre Chambon (Strasbourg-Cedex, France) (26). Homozygous RARβ-null mice were obtained following mating of RARβ heterozygous mice. Blastocysts were harvested on day E3.5 and individually cultured on ES cell medium as previously described (28). Various markers for endodermal (day 5), pancreatic progenitor (day 11), endocrine progenitor (day 14) and endocrine (day 17) differentiation were analyzed by semi-quantitative RT-PCR in J1 wild-type and RARβ KO ESCs. Primers were designed around introns whenever possible. Total RNA extraction, semi-quantitative and quantitative PCR reactions were performed as previously described (18). Amplified PCR products were resolved on 1.5% agarose gels and visualized by staining with ethidium bromide. PCR bands were sequenced for verification of the correct amplicon. Quantitation of semi-quantitative gels was performed using ImageJ software (National Institutes of Health) from three experimental biological repeats.

Cyp26a1 = assay: RT-PCR of Cyp26a1 in RA-treated WT and RARβ KO ES cells; type: cell-based, mouse
Protocol: as §3

[3] = HF diet mice + AC261066 or CD1530 vs controls

Row | SMILES | mRNA levels of MCP-1 in liver (MCP-1) | hepatocyte lipid infiltration / hepatic steatosis (H and E) [1] | α-SMA positive staining in liver (HSC activation) (α-SMA) | hepatic lipid accumulation (oil red O) (hepatic lipids) | mRNA levels of SREBP1-c in liver (SREBP1-c) | mRNA levels of TNF-α in liver (TNF-α) | renal lipid infiltration/accumulation (H and E) (renal lipid accumulation) | liver retinol compared to controls [2, 3] | liver retinyl palmitate compared to controls [2, 3] | retinyl palmitate levels in the liver lower than HF-vehicle treated mice ([2]; HF diet mice + CD1530) [%] | RARβ transcript signal (RARβ) | Cyp26a1 expression (Cyp26a1)
1 | O=C(O)c1ccc(-c2ccc3cc(O)c(C45CC6CC(CC(C6)C4)C5)cc3c2)cc1 [CD1530] | markedly elevated | no decrease in hepatic lipid accumulation | no evidence decreased lipid accumulation or α-SMA expression intensity or patterns | not observed; also recorded: no evidence decreased lipid accumulation | markedly higher | markedly elevated | no decrease in renal lipid accumulation | significantly lowered | significantly lowered | ~48 |  | 
2 | CC1=C(/C=C/C(C)=C/C=C/C(C)=C/C(=O)O)C(C)(C)CCC1 [RA, all trans-retinoic acid] |  |  |  |  |  |  |  |  |  |  | stronger RARβ signal | RA-dependent Cyp26a1 expression was observed in both WT and RARβ KO ES cells
